PubChem BioAssay AID256 (DTP/NCI, 2004)
Several values for one entry are separate records, joined by “and”; a condition that tells them apart may be missing. Identical values can stand only once. Inconclusive results and toxic doses are left out. How the source made its calls: active means survival T/C of 150% or more; inactive means T/C below 125% in these data.

Tested on: CD2F1 mice, L1210 leukemia ip, survival T/C
Test: NCI In Vivo Anticancer Drug Screen. Data for tumor model L1210 Leukemia (intraperitoneal) in CD2F1 (CDF1) mice
Conditions: endpoint: mean survival time, higher = longer survival
How it was run: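 Ratio T/C, where T is the treated-group value and C the vehicle-dosed control value, from mice implanted with a transplantable tumor.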

[1] = dose: 75.0 mg/kg/injection, schedule: Q01DX001 (ip), vehicle: saline
[2] = dose: 100.0 mg/kg/injection, schedule: Q04DX003 (ip), vehicle: saline
[3] = dose: 200.0 mg/kg/injection, schedule: Q04DX003 (ip), vehicle: saline
[4] = dose: 100.0 mg/kg/injection, schedule: Q04DX003 (ip), vehicle: saline with Tween-80
[5] = dose: 200.0 mg/kg/injection, schedule: Q04DX003 (ip), vehicle: saline with Tween-80
[6] = dose: 400.0 mg/kg/injection, schedule: Q04DX003 (ip), vehicle: saline with Tween-80
[7] = dose: 100.0 mg/kg/injection, schedule: Q01DX001 (ip), vehicle: other
[8] = dose: 200.0 mg/kg/injection, schedule: Q01DX001 (ip), vehicle: other
[9] = dose: 400.0 mg/kg/injection, schedule: Q01DX001 (ip), vehicle: other

Measured: T/C

C[n+]1ccc2c(Br)cccc2c1
inactive: [1] 101 % of control

CCC1c2cc(O)c(OC)cc2CCN1C (stereo not drawn)
inactive: [1] 106 % of control

CC1(C)C(C2CCCC[N+]2=O)CS1(=O)=O (stereo not drawn)
inactive: dose: 100.0 mg/kg/injection, schedule: Q01DX001 (ip), vehicle: saline 100 % of control | [2] 101 % of control | dose: 200.0 mg/kg/injection, schedule: Q01DX001 (ip), vehicle: saline 100 % of control | [3] 103 % of control | dose: 400.0 mg/kg/injection, schedule: Q01DX001 (ip), vehicle: saline 96 % of control | dose: 400.0 mg/kg/injection, schedule: Q04DX003 (ip), vehicle: saline 105 % of control

O=C(O)c1ccc([As](=O)(O)O)cc1[N+](=O)[O-]
inactive: dose: 50.0 mg/kg/injection, schedule: Q04DX003 (ip), vehicle: saline 105 % of control | [2] 97 % of control | [3] 95 % of control

CS(=O)(=O)OCC1NC(=O)C(COS(C)(=O)=O)NC1=O (stereo not drawn)
inactive: dose: 3.13 mg/kg/injection, schedule: Q01DX009 (ip), vehicle: water 103 % of control | dose: 6.25 mg/kg/injection, schedule: Q01DX009 (ip), vehicle: water 101 % of control | dose: 12.5 mg/kg/injection, schedule: Q01DX009 (ip), vehicle: water 105 % of control | dose: 25.0 mg/kg/injection, schedule: Q01DX009 (ip), vehicle: water 106 % of control | dose: 50.0 mg/kg/injection, schedule: Q01DX009 (ip), vehicle: water 101 % of control | dose: 100.0 mg/kg/injection, schedule: Q01DX009 (ip), vehicle: water 100 % of control

O=C1C(=O)c2ccccc2C(O)=C1CNCCO
inactive: dose: 100.0 mg/kg/injection, schedule: Q01DX001 (ip), vehicle: saline with Tween-80 97 % of control | dose: 200.0 mg/kg/injection, schedule: Q01DX001 (ip), vehicle: saline with Tween-80 94 % of control | dose: 400.0 mg/kg/injection, schedule: Q01DX001 (ip), vehicle: saline with Tween-80 94 % of control

CCCCCCCCCCCCCOc1ccc2ccccc2c1
inactive: dose: 100.0 mg/kg/injection, schedule: Q01DX001 (ip), vehicle: Klucel (hydroxypropylcellulose) (HPC) 107 % of control | dose: 200.0 mg/kg/injection, schedule: Q01DX001 (ip), vehicle: Klucel (hydroxypropylcellulose) (HPC) 96 % of control | dose: 400.0 mg/kg/injection, schedule: Q01DX001 (ip), vehicle: Klucel (hydroxypropylcellulose) (HPC) 87 % of control

C1=CC2c3ccccc3C1C1C=CC21 (stereo not drawn)
inactive: dose: 100.0 mg/kg/injection, schedule: Q01DX009 (ip), vehicle: saline with Tween-80 95 % of control | [4] 91 % of control | dose: 200.0 mg/kg/injection, schedule: Q01DX009 (ip), vehicle: saline with Tween-80 108 % of control | [5] 93 % of control | dose: 400.0 mg/kg/injection, schedule: Q01DX009 (ip), vehicle: saline with Tween-80 93 % of control | [6] 93 % of control

CC(=O)OCCOCCOCc1ccccc1
inactive: [7] 96 % of control | [8] 102 % of control | [9] 98 % of control

N#CN=Nc1ccc(Cl)cc1
inactive: dose: 9.5 mg/kg/injection, schedule: Q01DX001 (ip), vehicle: other 97 % of control | dose: 19.0 mg/kg/injection, schedule: Q01DX001 (ip), vehicle: other 97 % of control | dose: 38.0 mg/kg/injection, schedule: Q01DX001 (ip), vehicle: other 89 % of control

O=C(Nc1ccccc1)O/N=C(/c1ccccc1)c1cccnc1
inactive: [7] 104 % of control | [8] 104 % of control | [9] 98 % of control

NCC1OC(n2cnc3c(N)ncnc32)C(O)C1O (stereo not drawn)
inactive: dose: 12.5 mg/kg/injection, schedule: Q01DX005 (ip), vehicle: Klucel (hydroxypropylcellulose) (HPC) 109 % of control | dose: 25.0 mg/kg/injection, schedule: Q01DX005 (ip), vehicle: Klucel (hydroxypropylcellulose) (HPC) 107 % of control | dose: 50.0 mg/kg/injection, schedule: Q01DX005 (ip), vehicle: Klucel (hydroxypropylcellulose) (HPC) 115 % of control | dose: 100.0 mg/kg/injection, schedule: Q01DX005 (ip), vehicle: Klucel (hydroxypropylcellulose) (HPC) 115 % of control

COc1ccc2c(c1OC)CC1N(S(=O)(=O)c3ccc(C)cc3)CCC13c1ccccc1N(C(C)=O)C23 (stereo not drawn)
inactive: dose: 75.0 mg/kg/injection, schedule: Q01DX001 (ip), vehicle: other 95 % of control | dose: 150.0 mg/kg/injection, schedule: Q01DX001 (ip), vehicle: other 89 % of control and 95 % of control | dose: 300.0 mg/kg/injection, schedule: Q01DX001 (ip), vehicle: other 97 % of control and 100 % of control

COC(=O)Nc1ccc(Cl)cc1[N+](=O)[O-]
inactive: dose: 100.0 mg/kg/injection, schedule: Q04DX002 (ip), vehicle: saline with Tween-80 95 % of control | dose: 200.0 mg/kg/injection, schedule: Q04DX002 (ip), vehicle: saline with Tween-80 95 % of control | dose: 400.0 mg/kg/injection, schedule: Q04DX002 (ip), vehicle: saline with Tween-80 91 % of control

Cc1cc(Nc2ccccc2)nc(C)n1
inactive: dose: 12.5 mg/kg/injection, schedule: Q04DX002 (ip), vehicle: saline with Tween-80 111 % of control | dose: 25.0 mg/kg/injection, schedule: Q04DX002 (ip), vehicle: saline with Tween-80 114 % of control

CCOC(=O)c1cnc[nH]c1=O
inactive: [4] 104 % of control | [5] 104 % of control | [6] 96 % of control
